Results from US7880007B2, “Bicyclic substituted phenyl piperidine modulators of muscarinic receptors” (Vertex Pharmaceuticals Incorporated, priority 2004, dated 2011).

Legend:
Assay type in all cases: cell-based
[1] = biological target: T1, M3 muscarinic receptor (Homo sapiens, UniProt P20309); assay: Functional mobilization of intracellular calcium (FLIPR), M3-CHO cells; details: for Emax: 100% efficacy = maximum response obtained with the Carbachol control; for M3 Activity: M3-CHO cells, calcium mobilization (FLIPR)
T1 construct: expressed in transfected cells; host or cells: CHO (M3-CHO)
T1 sequence (P20309 whole entry): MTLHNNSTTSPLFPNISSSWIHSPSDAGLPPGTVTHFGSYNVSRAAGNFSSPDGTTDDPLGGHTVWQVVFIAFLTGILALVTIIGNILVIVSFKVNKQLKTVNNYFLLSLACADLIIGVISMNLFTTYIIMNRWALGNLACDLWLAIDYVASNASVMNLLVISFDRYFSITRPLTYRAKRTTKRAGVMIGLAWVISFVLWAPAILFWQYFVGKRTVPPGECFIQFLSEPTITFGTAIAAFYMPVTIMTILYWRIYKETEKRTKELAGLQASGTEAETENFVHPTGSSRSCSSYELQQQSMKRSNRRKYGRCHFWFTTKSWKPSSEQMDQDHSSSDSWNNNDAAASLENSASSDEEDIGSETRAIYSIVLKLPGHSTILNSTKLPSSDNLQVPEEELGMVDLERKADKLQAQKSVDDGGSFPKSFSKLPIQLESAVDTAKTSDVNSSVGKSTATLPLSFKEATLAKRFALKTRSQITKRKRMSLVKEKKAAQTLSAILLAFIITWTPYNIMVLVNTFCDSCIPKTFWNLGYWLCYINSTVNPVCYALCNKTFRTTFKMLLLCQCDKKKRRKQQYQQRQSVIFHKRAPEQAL
Outline: (§1)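 Calcium mobilisation read by FLIPR over 60 s (ex 488/em 540 nm) in recombinant muscarinic CHO lines loaded with calcium dye plus 1 mM probenecid. Compounds tested as agonists alone, or as inhibitors against EC80 carbachol after 15 min pre-incubation or co-addition; 0.5% DMSO; efficacy scaled to carbachol maximal response.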

[2] = biological target: T2, M2 muscarinic receptor (Homo sapiens, UniProt P08172); assay: Functional mobilization of intracellular calcium (FLIPR), M2-CHO cells; details: for Emax: 100% efficacy = maximum response obtained with the Carbachol control; for M2 Activity: M2-CHO cells, calcium mobilization (FLIPR)
T2 construct: expressed in transfected cells; host or cells: CHO (M2-CHO)
T2 sequence (P08172 1-466): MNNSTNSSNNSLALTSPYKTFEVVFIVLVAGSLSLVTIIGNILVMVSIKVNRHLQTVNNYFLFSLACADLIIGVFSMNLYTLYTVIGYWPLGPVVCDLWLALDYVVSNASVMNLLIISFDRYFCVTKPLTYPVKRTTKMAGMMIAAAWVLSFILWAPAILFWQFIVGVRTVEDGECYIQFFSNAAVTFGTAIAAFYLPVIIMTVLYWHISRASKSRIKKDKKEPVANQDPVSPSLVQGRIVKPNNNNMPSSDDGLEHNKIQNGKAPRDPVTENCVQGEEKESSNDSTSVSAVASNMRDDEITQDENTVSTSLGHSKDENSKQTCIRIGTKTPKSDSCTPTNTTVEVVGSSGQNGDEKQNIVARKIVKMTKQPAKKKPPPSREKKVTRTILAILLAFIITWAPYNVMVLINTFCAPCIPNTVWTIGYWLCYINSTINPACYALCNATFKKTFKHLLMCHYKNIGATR
Outline: as §1

[3] = biological target: T3, M4 muscarinic receptor (Homo sapiens, UniProt P08173); assay: Functional mobilization of intracellular calcium (FLIPR), M4-CHO cells; details: for Emax: 100% efficacy = maximum response obtained with the Carbachol control; for M4 Activity: M4-CHO cells, calcium mobilization (FLIPR)
T3 construct: expressed in transfected cells; host or cells: CHO (M4-CHO)
T3 sequence (P08173 1-479): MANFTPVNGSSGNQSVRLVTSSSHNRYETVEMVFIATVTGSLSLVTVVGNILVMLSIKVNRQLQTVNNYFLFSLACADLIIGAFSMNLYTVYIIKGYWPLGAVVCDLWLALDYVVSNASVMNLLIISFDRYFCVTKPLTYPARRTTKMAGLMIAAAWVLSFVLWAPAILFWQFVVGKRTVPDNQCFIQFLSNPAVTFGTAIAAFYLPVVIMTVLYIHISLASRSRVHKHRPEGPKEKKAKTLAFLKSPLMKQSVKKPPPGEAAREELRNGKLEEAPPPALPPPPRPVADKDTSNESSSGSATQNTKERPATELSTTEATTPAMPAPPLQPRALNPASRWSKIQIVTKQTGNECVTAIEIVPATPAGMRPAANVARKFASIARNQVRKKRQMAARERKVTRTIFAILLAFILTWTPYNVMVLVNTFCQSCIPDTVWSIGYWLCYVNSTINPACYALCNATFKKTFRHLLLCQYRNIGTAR
Outline: as §1

[4] = biological target: T4, M1 muscarinic receptor (Homo sapiens, UniProt P11229); assay: Functional mobilization of intracellular calcium (FLIPR), M1-CHO cells; details: for Emax: 100% efficacy = maximum response obtained with the Carbachol control; for M1 Activity: M1-CHO cells, calcium mobilization (FLIPR)
T4 construct: expressed in transfected cells; host or cells: CHO (M1-CHO)
T4 sequence (P11229 1-460): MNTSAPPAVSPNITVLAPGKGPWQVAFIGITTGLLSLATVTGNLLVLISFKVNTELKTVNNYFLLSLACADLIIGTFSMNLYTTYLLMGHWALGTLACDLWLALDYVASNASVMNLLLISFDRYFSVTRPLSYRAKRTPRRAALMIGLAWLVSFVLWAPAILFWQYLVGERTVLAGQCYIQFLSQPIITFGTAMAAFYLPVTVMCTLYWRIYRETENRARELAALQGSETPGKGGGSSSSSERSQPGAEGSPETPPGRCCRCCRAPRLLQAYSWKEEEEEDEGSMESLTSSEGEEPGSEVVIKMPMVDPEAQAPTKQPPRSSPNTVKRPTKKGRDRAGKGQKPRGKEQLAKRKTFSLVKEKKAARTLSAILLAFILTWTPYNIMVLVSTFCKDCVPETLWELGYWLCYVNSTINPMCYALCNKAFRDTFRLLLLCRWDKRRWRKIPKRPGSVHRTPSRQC
Outline: as §1

Emax [1] [%]	Emax [2] [%]	Emax [3] [%]	Emax [4] [%]	Structure (SMILES)	M3 Activity [1]	M2 Activity [2]	M4 Activity [3]	M1 Activity [4]
< 25	< 25	25 to 100	< 25	COc1c(F)cc(F)cc1C1CCN(C2CC3CCC(C3)C2)CC1 (centres unmarked) [Compound 311]	+ (activity was measured to be greater than 5.0 μM)	+ (activity was measured to be greater than 5.0 μM)	+++ (activity was measured to be less than 1.0 μM)	+ (activity was measured to be greater than 5.0 μM)
< 25	< 25	< 25	< 25	COc1ccc(-c2ccc(C(=O)Nc3nccs3)cc2)cc1C1CCN(C2CC3CCC(C3)C2)CC1 (centres unmarked) [Compound 313]	+ (activity was measured to be greater than 5.0 μM)	+ (activity was measured to be greater than 5.0 μM)	+ (activity was measured to be greater than 5.0 μM)	+ (activity was measured to be greater than 5.0 μM)
< 25	< 25	25 to 100	< 25	COc1ccc(F)cc1C1(F)CCN(C2CCOCC2)CC1 [Compound 314]	+ (activity was measured to be greater than 5.0 μM)	+ (activity was measured to be greater than 5.0 μM)	+ (activity was measured to be greater than 5.0 μM)	+ (activity was measured to be greater than 5.0 μM)
< 25	< 25	25 to 100	< 25	COc1ccc(-c2cccc(F)c2F)cc1C1CCN([C@@H]2C[C@H]3CC[C@H]2C3)CC1 [Compound 318]	+ (activity was measured to be greater than 5.0 μM)	+ (activity was measured to be greater than 5.0 μM)	+ (activity was measured to be greater than 5.0 μM)	+ (activity was measured to be greater than 5.0 μM)
< 25	< 25	25 to 100	< 25	COc1ccccc1C1CCN(CC2CCCCC2)CC1 [Compound 320]	+ (activity was measured to be greater than 5.0 μM)	+ (activity was measured to be greater than 5.0 μM)	++ (activity was measured to be from 1.0 μM to 5.0 μM)	+ (activity was measured to be greater than 5.0 μM)
< 25	< 25	< 25	< 25	COc1ccc(C(C)=O)cc1C1CCN([C@H]2C[C@H]3CC[C@H]2C3)CC1 [Compound 321]	+ (activity was measured to be greater than 5.0 μM)	+ (activity was measured to be greater than 5.0 μM)	+ (activity was measured to be greater than 5.0 μM)	+ (activity was measured to be greater than 5.0 μM)
< 25	< 25	25 to 100	< 25	COc1ccc(-c2ccc(C(=O)Nc3nccs3)cc2)cc1C1CCN(C2CCCCC2)CC1 [Compound 323]	+ (activity was measured to be greater than 5.0 μM)	+ (activity was measured to be greater than 5.0 μM)	++ (activity was measured to be from 1.0 μM to 5.0 μM)	+ (activity was measured to be greater than 5.0 μM)
< 25	< 25	25 to 100	< 25	CCC1(O)CCC(N2CCC(c3cc(Cl)ccc3OC)CC2)CC1 (centres unmarked) [Compound 324]	+ (activity was measured to be greater than 5.0 μM)	+ (activity was measured to be greater than 5.0 μM)	+++ (activity was measured to be less than 1.0 μM)	+ (activity was measured to be greater than 5.0 μM)
25 to 100	25 to 100	25 to 100	25 to 100	COc1ccc(C(C)(C)C)cc1C1CCN([C@@H]2C[C@@H]3CC[C@H]2C3)CC1 [Compound 325, 1-((1S,2R,4R)-bicyclo[2.2.1]heptan-2-yl)-4-(5-tert-butyl-2-methoxy-phenyl) piperidine]	+ (activity was measured to be greater than 5.0 μM)	+ (activity was measured to be greater than 5.0 μM)	++ (activity was measured to be from 1.0 μM to 5.0 μM)	++ (activity was measured to be from 1.0 μM to 5.0 μM)
< 25	25 to 100	25 to 100	25 to 100	COc1ccc(Cl)cc1C1(F)CCN(CC2CC3CCC2C3)CC1 (centres unmarked) [Compound 326]	+ (activity was measured to be greater than 5.0 μM)	+ (activity was measured to be greater than 5.0 μM)	++ (activity was measured to be from 1.0 μM to 5.0 μM)	+ (activity was measured to be greater than 5.0 μM)
< 25	25 to 100	25 to 100	25 to 100	CCCC1CCC(N2CCC(F)(c3cc(F)ccc3OC)CC2)CC1 (centres unmarked) [Compound 327]	+ (activity was measured to be greater than 5.0 μM)	+ (activity was measured to be greater than 5.0 μM)	++ (activity was measured to be from 1.0 μM to 5.0 μM)	++ (activity was measured to be from 1.0 μM to 5.0 μM)
< 25	< 25	25 to 100	< 25	CNC(=O)c1ccc(-c2ccc(OC)c(C3CCN(C4C[C@H]5CC[C@H]4C5)CC3)c2)cc1Cl (some centres unmarked) [Compound 328]	+ (activity was measured to be greater than 5.0 μM)	+ (activity was measured to be greater than 5.0 μM)	++ (activity was measured to be from 1.0 μM to 5.0 μM)	+ (activity was measured to be greater than 5.0 μM)
–	< 25	25 to 100	25 to 100	Cc1ccc(C)c(C2CCN(CC3CC4C=CC3C4)CC2)c1 (centres unmarked) [Compound 329]	+ (activity was measured to be greater than 5.0 μM)	+ (activity was measured to be greater than 5.0 μM)	++ (activity was measured to be from 1.0 μM to 5.0 μM)	+ (activity was measured to be greater than 5.0 μM)

Structure (SMILES)	Emax [1] [%]	Emax [2] [%]	Emax [3] [%]	Emax [4] [%]	M3 Activity [1]	M2 Activity [2]	M4 Activity [3]	M1 Activity [4]
CCOC(=O)N1C2CCC1CC(N1CCC(c3cc(-c4ccc(C#N)cc4)ccc3OC)CC1)C2 (centres unmarked) [Compound 317]	< 25	< 25	25 to 100	25 to 100	+ (activity was measured to be greater than 5.0 μM)	+ (activity was measured to be greater than 5.0 μM)	++ (activity was measured to be from 1.0 μM to 5.0 μM)	++ (activity was measured to be from 1.0 μM to 5.0 μM)
CCOC(=O)N1C2CCC1CC(N1CCC(c3cc(OC)cc(F)c3F)CC1)C2 (centres unmarked) [Compound 322]	< 25	< 25	25 to 100	25 to 100	+ (activity was measured to be greater than 5.0 μM)	++ (activity was measured to be from 1.0 μM to 5.0 μM)	+++ (activity was measured to be less than 1.0 μM)	+++ (activity was measured to be less than 1.0 μM)
